Earlier results on 1 compound are cited in patent publication US20210353546A1, “DUAL RELEASE PHARMACEUTICAL COMPOSITIONS COMPRISING THE COMBINATION OF A BETA-3 ADRENORECEPTOR AGONIST AND A MUSCARINIC RECEPTOR ANTAGONIST” (Jubilant Pharma Holdings Inc., priority 2020, published 2021).

Assay in data set [1]: not given
This is another data set of the same source.

Read-outs that look alike come from different tables or passages of the source.

Consider `Nc1nc(CC(=O)Nc2ccc(CCNC[C@H](O)c3ccccc3)cc2)cs1` [Mirabegron, 2-(2-aminothiazol-4-yl)-N-[4-(2-{[(2R)-2-hydroxy2-phenylethyl]amino}ethyl)phenyl] acetamide], for which the Solubility result is given as “soluble” (in dimethyl sulfoxide), “soluble” (in methanol) and “practically insoluble” (in water). The half-life result in data set [1] (in vivo) is on record as “approximately 50 hours”. The “bioavailability, food effect” value in data set [1] (presence of food in the Gastrointestinal Tract) is recorded as “affected by the presence of food”.
